Where two headings read alike, the source gives them in different places.
Experiments:
[1] = molecular target: T1, EGFR (L858R, T790M) (Homo sapiens, UniProt P00533, L858R/T790M); test: In vitro kinase binding assay (phage/DNA-tagged kinase, affinity beads, qPCR), mutant EGFR; conditions: for Binding Affinity ratio of WT/DM: ratio of Kd EGFR (WT) to Kd EGFR (L858R, T790M)
T1 construct: The EGFR constructs span amino acids R669 to V1011 of the EGFR protein; T7 phage display fusion (kinase-tagged T7 phage) or DNA tag for qPCR; made in house; host or cells: E. coli (BL21-derived) infected with T7 phage for most assays; remaining kinases in HEK-293
Experimental: (§1) For most assays, kinase-tagged T7 phage strains were prepared in an E. coli host derived from the BL21 strain. For the EGFR assays, wild-type EGFR, or mutant EGFR (T790M, L858R) were utilized. The EGFR constructs span amino acids R669 to V1011 of the EGFR protein. E. coli were grown to log-phase and infected with T7 phage and incubated with shaking at 32° C. until lysis. The lysates were centrifuged and filtered to remove cell debris. The remaining kinases were produced in HEK-293 cells and subsequently tagged with DNA for qPCR detection. Streptavidin-coated magnetic beads were treated with biotinylated small molecule ligands for 30 minutes at room temperature to generate affinity resins for kinase assays. The liganded beads were blocked with excess biotin and washed with blocking buffer (SeaBlock (Pierce), 1% BSA, 0.05% Tween 20, 1 mM DTT) to remove unbound ligand and to reduce non-specific binding. Binding reactions were assembled by combining kinases, liganded affinity beads, and test compounds in 1× binding buffer (20% SeaBlock, 0.17×PBS, 0.05% Tween 20, 6 mM DTT). Test compounds were prepared as 111× stocks in 100% DMSO. Kds were determined using an 11-point 3-fold compound dilution series with three DMSO control points. All compounds for Kd measurements are distributed by acoustic transfer (non-contact dispensing) in 100% DMSO. The compounds were then diluted directly into the assays such that the final concentration of DMSO was 0.9%. All reactions performed in polypropylene 384-well plate. Each was a final volume of 0.02 ml. The assay plates were incubated at room temperature with shaking for 1 hour and the affinity beads were washed with wash buffer (lx PBS, 0.05% Tween 20). The beads were then re-suspended in elution buffer (lx PBS, 0.05% Tween 20, 0.5 μM nonbiotinylated affinity ligand) and incubated at room temperature with shaking for 30 minutes. The kinase concentration in the eluates was measured by qPCR.

[2] = molecular target: T2, EGFR (WT) (Homo sapiens, UniProt P00533); test: In vitro kinase binding assay (phage/DNA-tagged kinase, affinity beads, qPCR), wild-type EGFR
T2 construct: The EGFR constructs span amino acids R669 to V1011 of the EGFR protein; T7 phage display fusion (kinase-tagged T7 phage) or DNA tag for qPCR; made in house; host or cells: E. coli (BL21-derived) infected with T7 phage for most assays; remaining kinases in HEK-293
Experimental: as §1

[3] = mutant EGFR (T790M, L858R) construct R669 to V1011, 11-point 3-fold dilution series, 1 hour at room temperature, read-out: EGFR (L858R, T790M) Kd
[4] = wild-type EGFR construct R669 to V1011, 11-point 3-fold dilution series, 1 hour at room temperature, read-out: EGFR (WT) Kd

T2 sequence (P00533 669-1011): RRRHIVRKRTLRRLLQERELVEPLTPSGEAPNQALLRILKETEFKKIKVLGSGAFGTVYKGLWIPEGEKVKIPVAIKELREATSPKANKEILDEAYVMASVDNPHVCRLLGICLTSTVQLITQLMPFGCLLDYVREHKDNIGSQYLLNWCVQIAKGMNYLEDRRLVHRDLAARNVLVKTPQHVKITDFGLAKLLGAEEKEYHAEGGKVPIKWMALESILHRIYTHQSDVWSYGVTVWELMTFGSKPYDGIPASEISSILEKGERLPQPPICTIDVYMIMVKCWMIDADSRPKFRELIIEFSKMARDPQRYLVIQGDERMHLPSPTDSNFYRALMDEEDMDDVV
T1 sequence (P00533 669-1011 T790M/L858R): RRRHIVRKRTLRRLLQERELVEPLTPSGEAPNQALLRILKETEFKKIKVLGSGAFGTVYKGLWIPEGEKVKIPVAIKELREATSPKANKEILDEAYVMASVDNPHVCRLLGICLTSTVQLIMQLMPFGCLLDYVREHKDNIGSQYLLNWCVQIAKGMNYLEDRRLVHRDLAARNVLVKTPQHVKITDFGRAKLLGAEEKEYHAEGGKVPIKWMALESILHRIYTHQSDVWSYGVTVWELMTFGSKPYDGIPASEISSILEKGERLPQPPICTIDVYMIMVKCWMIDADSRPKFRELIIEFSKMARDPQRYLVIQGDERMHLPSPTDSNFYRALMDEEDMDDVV

SMILES | Kd [1, 3] [µM] | Binding Affinity ratio of WT/DM [1] | Kd [2, 4] [µM] | Kd [1] [µM] | Kd [2] [µM]
C=CC(=O)N[C@@H]1CN(c2nc(Nc3cn(CCCNC(=O)CN4CCN(CC(=O)O)CCN(CC(=O)O)CCN(CC(=O)O)CC4)nc3OC)c3ncn(C)c3n2)C[C@H]1F [Compound 001, 2-[4,7-bis(carboxymethyl)-10-[2-[3-[4-[[2-[(3R,4R)-3-fluoro-4-(prop-2-enoylamino)pyrrolidin-1-yl]-9-methyl-purin-6-yl]amino]-3-methoxy-pyrazol-1-yl]propylamino]-2-oxo-ethyl]-1,4,7,10-tetrazacyclododec-1-yl]acetic acid] | < 0.001 | A (4 < A ≤ 25) | 0.002 to 0.1 | – | –
C=CC(=O)N[C@@H]1CN(c2nc(Nc3cn(CCCNC(=O)CN4CCN5CCN6CCN(CC4)CC(=O)[O][Lu]([O]C(=O)C5)[O]C(=O)C6)nc3OC)c3ncn(C)c3n2)C[C@H]1F [Compound 001-Lu, N-[(3R,4R)-4-fluoro-1-[6-[[3-methoxy-1-[3-[[2-(3,16,19-trioxo-2,17,18-trioxa-5,8,11,14-tetraza-1λ3-lutetatricyclo[9.6.3.25,14]docosan-8-yl)acetyl]amino]propyl]pyrazol-4-yl]amino]-9-methyl-purin-2-yl]pyrrolidin-3-yl]prop-2-enamide] | – | A (4 < A ≤ 25) | – | < 0.001 | 0.002 to 0.1
C=CC(=O)N[C@@H]1CN(c2nc(Nc3cn(CCCCCNC(=O)CN4CCN(CC(=O)O)CCN(CC(=O)O)CCN(CC(=O)O)CC4)nc3OC)c3ncn(C)c3n2)C[C@H]1F [Compound 002, 2-[4,7-bis(carboxymethyl)-10-[2-[5-[4-[[2-[(3R,4R)-3-fluoro-4-(prop-2-enoylamino)pyrrolidin-1-yl]-9-methyl-purin-6-yl]amino]-3-methoxy-pyrazol-1-yl]pentylamino]-2-oxo-ethyl]-1,4,7,10-tetrazacyclododec-1-yl]acetic acid] | < 0.001 | – | 0.002 to 0.1 | – | –
C=CC(=O)N[C@@H]1CN(c2nc(Nc3cn(CCCCCNC(=O)CN4CCN5CCN6CCN(CC4)CC(=O)[O][Lu]([O]C(=O)C5)[O]C(=O)C6)nc3OC)c3ncn(C)c3n2)C[C@H]1F [Compound 002-Lu, N-[(3R,4R)-4-fluoro-1-[6-[[3-methoxy-1-[5-[[2-(3,16,19-trioxo-2,17,18-trioxa-5,8,11,14-tetraza-1λ3-lutetatricyclo[9.6.3.25,14]docosan-8-yl)acetyl]amino]pentyl]pyrazol-4-yl]amino]-9-methyl-purin-2-yl]pyrrolidin-3-yl]prop-2-enamide] | – | A (4 < A ≤ 25) | – | < 0.001 | 0.002 to 0.1
C=CC(=O)N[C@@H]1CN(c2nc(Nc3cn(CCCCCCCNC(=O)CN4CCN(CC(=O)O)CCN(CC(=O)O)CCN(CC(=O)O)CC4)nc3OC)c3ncn(C)c3n2)C[C@H]1F [Compound 003, 2-[4,7-bis(carboxymethyl)-10-[2-[7-[4-[[2-[(3R,4R)-3-fluoro-4-(prop-2-enoylamino)pyrrolidin-1-yl]-9-methyl-purin-6-yl]amino]-3-methoxy-pyrazol-1-yl]heptylamino]-2-oxo-ethyl]-1,4,7,10-tetrazacyclododec-1-yl]acetic acid] | < 0.001 | A (4 < A ≤ 25) | 0.002 to 0.1 | – | –
C=CC(=O)N[C@@H]1CN(c2nc(Nc3cn(CCCCCCCNC(=O)CN4CCN5CCN6CCN(CC4)CC(=O)[O][Lu]([O]C(=O)C5)[O]C(=O)C6)nc3OC)c3ncn(C)c3n2)C[C@H]1F [Compound 003-Lu, N-[(3R,4R)-4-fluoro-1-[6-[[3-methoxy-1-[7-[[2-(3,16,19-trioxo-2,17,18-trioxa-5,8,11,14-tetraza-1λ3-lutetatricyclo[9.6.3.25,14]docosan-8-yl)acetyl]amino]heptyl]pyrazol-4-yl]amino]-9-methyl-purin-2-yl]pyrrolidin-3-yl]prop-2-enamide] | – | A (4 < A ≤ 25) | – | < 0.001 | 0.002 to 0.1
C=CC(=O)N[C@@H]1CN(c2nc(Nc3cn(CCCCCNC(=O)CN4CCN(CC(=O)O)CCN(CC(=O)O)CCN(CC(=O)O)CC4)nc3OC)c3ncn(C(C)(C)C)c3n2)C[C@H]1F [Compound 004, 2-[4-[2-[5-[4-[[9-tert-butyl-2-[(3R,4R)-3-fluoro-4-(prop-2-enoylamino)pyrrolidin-1-yl]purin-6-yl]amino]-3-methoxy-pyrazol-1-yl]pentylamino]-2-oxo-ethyl]-7,10-bis(carboxymethyl)-1,4,7,10-tetrazacyclododec-1-yl]acetic acid] | 0.001 to 0.025 | B (25 < B ≤ 100) | 0.1 to 1 | – | –
C=CC(=O)N[C@@H]1CN(c2nc(Nc3cn(CCCCCNC(=O)CN4CCN5CCN6CCN(CC4)CC(=O)[O][Lu]([O]C(=O)C5)[O]C(=O)C6)nc3OC)c3ncn(C(C)(C)C)c3n2)C[C@H]1F [Compound 004-Lu, N-[(3R,4R)-1-[9-tert-butyl-6-[[3-methoxy-1-[5-[[2-(3,16,19-trioxo-2,17,18-trioxa-5,8,11,14-tetraza-1λ3-lutetatricyclo[9.6.3.25,14]docosan-8-yl)acetyl]amino]pentyl]pyrazol-4yl]amino]purin-2-yl]-4-fluoro-pyrrolidin-3-yl]prop-2-enamide] | – | B (25 < B ≤ 100) | – | < 0.001 | 0.002 to 0.1
C=CC(=O)N[C@@H]1CN(c2nc(Nc3cn(CCCCCNC(=O)CN4CCN(CC(=O)O)CCN(CC(=O)O)CCN(CC(=O)O)CC4)nc3CC)c3ncn(C(C)(C)C)c3n2)C[C@H]1F [Compound 005, 2-[4-[2-[5-[4-[[9-tert-butyl-2-[(3R,4R)-3-fluoro-4-(prop-2-enoylamino)pyrrolidin-1-yl]purin-6-yl]amino]-3-ethyl-pyrazol-1-yl]pentylamino]-2-oxo-ethyl]-7,10-bis(carboxymethyl)-1,4,7,10-tetrazacyclododec-1-yl]acetic acid] | 0.001 to 0.025 | C (100 < C ≤ 1000) | 1 to 2.5 | – | –
C=CC(=O)N[C@@H]1CN(c2nc(Nc3cn(CCCCCNC(=O)CN4CCN5CCN6CCN(CC4)CC(=O)[O][Lu]([O]C(=O)C5)[O]C(=O)C6)nc3CC)c3ncn(C(C)(C)C)c3n2)C[C@H]1F [Compound 005-Lu, N-[(3R,4R)-1-[9-tert-butyl-6-[[3-ethyl-1-[5-[[2-(3,16,19-trioxo-2,17,18-trioxa-5,8,11,14-tetraza-1λ3-lutetatricyclo[9.6.3.25,14]docosan-8-yl)acetyl]amino]pentyl]pyrazol-4-yl]amino]purin-2-yl]-4-fluoro-pyrrolidin-3-yl]prop-2-enamide] | – | C (100 < C ≤ 1000) | – | 0.001 to 0.025 | 1 to 2.5
C=CC(=O)N[C@@H]1CN(c2nc(Nc3cn(CCCCCNC(=O)CN4C[C@H](CC)N(CC(=O)O)C[C@H](CC)N(CC(=O)O)C[C@H](CC)N(CC(=O)O)C[C@@H]4CC)nc3CC)c3ncn(C(C)(C)C)c3n2)C[C@H]1F [Compound 006, 2,2′,2″-((2S,5S,8S,11S)-10-(2-((5-(4-((2-((3R,4R)-3-acrylamido-4-fluoropyrrolidin-1-yl)-9-(tert-butyl)-9H-purin-6-yl)amino)-3-ethyl-1H-pyrazol-1-yl)pentyl)amino)-2-oxoethyl)-2,5,8,11-tetraethyl-1,4,7,10-tetraazacyclododecane-1,4,7-triyl)triacetic acid] | 0.001 to 0.025 | B (25 < B ≤ 100) | 1 to 2.5 | – | –
C=CC(=O)N1C[C@H](COc2nc(Nc3cnn(CCCCCNC(=O)CN4CCN(CC(=O)O)CCN(CC(=O)O)CCN(CC(=O)O)CC4)c3)nc3[nH]cc(Cl)c23)[C@@H](OC)C1 [Compound 007, 2,2′,2″-(10-(2-((5-(4-((4-(((3R,4R)-1-acryloyl-4-methoxypyrrolidin-3yl)methoxy)-5-chloro-7H-pyrrolo[2,3-d]pyrimidin-2-yl)amino)-1H-pyrazol-1-yl)pentyl)amino)-2-oxoethyl)-1,4,7,10-tetraazacyclododecane-1,4,7-triyl)triacetic acid] | 0.001 to 0.025 | C (100 < C ≤ 1000) | 0.1 to 1 | – | –
